Broadly, the EC50 is the concentration that produces a half-maximal response. By inhibition is commonly meant the change of the read-out against control, counted positive when it falls.

Series [1] concerns HIV. Nature of the series: microbe, parasite or virus in culture. The class given is cell-based. As to conditions: for EC50: Human immunodeficiency virus 1, A549.
Series [2] can be described thus: in vitro. The conditions noted are these: human.
Series [3] deals with H5N1 virus. Nature of the series: microbe, parasite or virus in culture. The class given is cell-based, H5N1 influenza virus. As to conditions: Influenza A virus; for EC50: H5N1, A549, read-out: EC50 against H5N1 virus; for inhibition at 0.05 µg/mL: H5N1, A549, 50 ng/mL; for inhibition at 0.25 µg/mL: H5N1, A549, 250 ng/mL.
The subject of series [4] is VSV (vesicular stomatitis virus). The series is described as follows: microbe, parasite or virus in culture. In kind it is cell-based. The conditions noted are these: for EC50: A549, read-out: EC50 against VSV.
Series [5] deals with EBOV (Ebola virus). The series is described as follows: microbe, parasite or virus in culture. In kind it is cell-based. The conditions noted are these: Zaire ebolavirus; for EC50: A549, read-out: EC50 against EBOV.
Series [6] deals with A549 cells. Nature of the series: cells. The conditions noted are these: Homo sapiens, A549, read-out: % Inhibition against A549 cells.
[7] abbreviates: CC50 against the host cell line A549.
[8] abbreviates: read-out: % Inhibition against H5N1 virus.

Some results are limits rather than exact numbers.

For `C=CCOC(=O)O[C@@H]1COC(Oc2c3c(c(-c4ccc5c(c4)OCO5)c4cc(OC)c(OC)cc24)C(=O)OC3)[C@H](OC(=O)OCC=C)[C@H]1OC(C)=O` (stereo partly drawn) [Compound 28ab3, 2″,4″-O-diallyl oxycarbonyl-3″-acetyl-7-O-β-D-xylosyldiphyllin], the EC50 in series [1] amounted to 22.9 nM; in series [3], 1.16 nM; in series [4] it was 0.85 nM; in series [5], 0.98 nM. The CC50 in series [2] (CC50 (nM)) is 386 nM; in series [2] (setting [7]), 6.14 nM.
Turning to `CN(C)CCOc1ccc(/C(=C(/CCCl)c2ccccc2)c2ccccc2)cc1` [Toremifene, toremifene, reference compound], the inhibition at 0.5 µg/mL in series [3] (H5N1, A549, 500 ng/mL, read-out: % Inhibition against H5N1 virus) was 28.4%; in series [6] it was -15.1%; in series [4] (A549, read-out: % Inhibition against VSV), 6.58%; in series [5] (A549, 500 ng/mL, read-out: % Inhibition against EBOV) it was 93.6%. Also, the EC50 in series [5] was determined as 212 nM.
Regarding `C=CCOC(=O)O[C@H]1C(Oc2c3c(c(-c4ccc5c(c4)OCO5)c4cc(OC)c(OC)cc24)C(=O)OC3)OC[C@@H](O)[C@@H]1OC(C)=O` (stereo partly drawn) [Compound 28ab2, 2″-O-allyl oxycarbonyl-3″-acetyl-7-O-β-D-xylosyldiphyllin], the EC50 in series [1] is 2.3 nM; in series [3], 0.23 nM; in series [4], 4.98 nM; in series [5], 16.3 nM. The CC50 came out at 386 nM in series [2] (CC50 (nM)) and 108 nM in series [2] (setting [7]).
`C=CCOC(=O)O[C@@H]1COC(Oc2c3c(c(-c4ccc5c(c4)OCO5)c4cc(OC)c(OC)cc24)C(=O)OC3)[C@H](OC(=O)OCC=C)[C@H]1O` (stereo partly drawn) [Compound 29a, 2″,4″-O-diallyl oxycarbonyl-7-O-β-D-xylosyldiphyllin]: the CC50 is 438 nM in series [2] (CC50 (nM)) and 122 nM in series [2] (setting [7]). The inhibition at 0.05 µg/mL in series [3] (setting [8]) amounted to 59.4%. In series [3] (setting [8]), the inhibition at 0.25 µg/mL was found to be 97.3%. Also, the EC50 in series [3] was determined as 5.57 nM; in series [4], 10.6 nM; in series [5], 10.6 nM.
In series [1], `COc1cc2c(N=C(c3ccccc3)c3ccccc3)c3c(c(-c4ccc5c(c4)OCO5)c2cc1OC)C(=O)OC3` [Compound 19p] showed an EC50 of 249 nM. This molecule also registered a CC50 in series [2] (CC50 (nM)) greater than 9200 nM. The inhibition at 1 µg/mL in series [3] (H5N1, A549, 1000 ng/mL, read-out: % Inhibition against H5N1 virus) is 82.1%; in series [6], -13%; in series [5] (A549, 1000 ng/mL, read-out: % Inhibition against EBOV) it was 58.1%. Further, the inhibition at 5 µg/mL in series [3] (H5N1, A549, 5000 ng/mL, read-out: % Inhibition against H5N1 virus) was determined as 96.5%; in series [6], 17.2%; in series [5] (A549, 5000 ng/mL, read-out: % Inhibition against EBOV), 89.4%.
Molecule `COc1cc2c(OC(=O)c3ccc(F)cc3)c3c(c(-c4ccc5c(c4)OCO5)c2cc1OC)C(=O)OC3` [Compound 17g] had an EC50 in series [1] of 79.9 nM. In series [2] (CC50 (nM)), this molecule showed a CC50 of 1320 nM.
The molecule `CCc1c2c(c(-c3ccc4c(c3)OCO4)c3cc(OC)c(OC)cc13)C(=O)OC2` [Compound 19g] showed an EC50 in series [1] of 19.3 nM. In series [2] (CC50 (nM)), this molecule gave a CC50 of 196 nM.
Regarding `COc1cc2c(-c3ccncc3)c3c(c(-c4ccc5c(c4)OCO5)c2cc1OC)C(=O)OC3` [Compound 19c], the midpoint of the response in series [1], the EC50, lay at 88.9 nM. The molecule also showed a CC50 in series [2] (CC50 (nM)) of 1670 nM.
Take `COc1cc2c(C(C)=O)c3c(c(-c4ccc5c(c4)OCO5)c2cc1OC)C(=O)OC3` [Compound 19n]: the midpoint of the response in series [1], the EC50, lay at 39.5 nM. Besides, the CC50 in series [2] (CC50 (nM)) was found to be 1060 nM.
The like results for `COc1cc2c(OC3O[C@H](C)[C@@H](OC(C)=O)[C@H](O)[C@H]3OC(C)=O)c3c(c(-c4ccc5c(c4)OCO5)c2cc1OC)C(=O)OC3` (stereo partly drawn) [Compound 27be, 2″,4″-Diacetyl-7-O-β-D-patentiflorin A] were, in that order, 1.96 nM and 1670 nM.
Turning to `COc1cc2c(-c3ccco3)c3c(c(-c4ccc5c(c4)OCO5)c2cc1OC)C(=O)OC3` [Compound 19k], in series [1], the midpoint of the response, the EC50, lay at 60.1 nM. This molecule also had a CC50 in series [2] (CC50 (nM)) of 1060 nM.
For `COc1cc2c(OC3O[C@H](C)[C@@H](O)[C@H](OC(C)=O)[C@H]3OC(C)=O)c3c(c(-c4ccc5c(c4)OCO5)c2cc1OC)C(=O)OC3` (stereo partly drawn) [Compound 27bf, 2″,3″-Diacetyl-7-O-β-D-patentiflorin A], a half-maximal effect in series [1] (EC50) was put at 1.17 nM. Further, in series [2] (CC50 (nM)), the CC50 was 308 nM.
Molecule `COc1cc2c(-c3cccnc3)c3c(c(-c4ccc5c(c4)OCO5)c2cc1OC)C(=O)OC3` [Compound 19i] displayed an EC50 in series [1] of 877 nM. In series [2] (CC50 (nM)), this molecule came in with a CC50 of 38400 nM.
For `COc1cc2c(C)c3c(c(-c4ccc5c(c4)OCO5)c2cc1OC)C(=O)OC3` [Compound 19b], the EC50 in series [1] is 6.1 nM. Also, the CC50 in series [2] (CC50 (nM)) is 77.3 nM.
As for `COc1cc2c(OCC(=O)OC(C)(C)C)c3c(c(-c4ccc5c(c4)OCO5)c2cc1OC)C(=O)OC3` [Compound 12a], in series [1], the response was half-maximal at 518 nM (EC50). The molecule also yielded a CC50 in series [2] (CC50 (nM)) greater than 10100 nM.
As for `COc1cc2c(OCC(N)=O)c3c(c(-c4ccc5c(c4)OCO5)c2cc1OC)C(=O)OC3` [Compound 14a], the EC50 in series [1] was 103 nM. Moreover, in series [2] (CC50 (nM)), the CC50 came to 548 nM.
For `COc1cc2c(Oc3ncccn3)c3c(c(-c4ccc5c(c4)OCO5)c2cc1OC)C(=O)OC3` [Compound 17d], the EC50 in series [1] stood at 1590 nM. Also, the CC50 in series [2] (CC50 (nM)) was determined as 61100 nM.
Consider `COc1cc2c(OC3O[C@H](CO)[C@H](O)[C@H](O)[C@H]3O)c3c(c(-c4ccc5c(c4)OCO5)c2cc1OC)C(=O)OC3` (stereo partly drawn) [Compound 26g, 7-O-β-D-galactopyranosyldiphyllin], for which the EC50 in series [1] amounted to 1400 nM; in series [3], 63.6 nM; in series [4], 210 nM; in series [5] it was 123 nM. Besides, the figures for the CC50 in series [2] (CC50 (nM)) and in series [2] (setting [7]) were 7770 nM and 4130 nM, respectively.
Take `COc1cc2c(N)c3c(c(-c4ccc5c(c4)OCO5)c2cc1OC)C(=O)OC3` [Compound 22]: in series [1], the “anti-HIV activity in terms of SI values” was “much more improved anti-HIV activity” and the response was half-maximal at 1.61 nM (EC50). The CC50 in series [2] (CC50 (nM)) is 358 nM.
The like results for `COc1cc2c(OC3O[C@H](C)[C@@H](O)[C@H](OC(C)=O)[C@H]3O)c3c(c(-c4ccc5c(c4)OCO5)c2cc1OC)C(=O)OC3` (stereo partly drawn) [Compound 27bb, 3″-Acetyl-7-O-β-D-patentiflorin A] were, in that order, “much more improved anti-HIV activity”, 1.01 nM and 589 nM.
`C=CCOC(=O)O[C@@H]1COC(Oc2c3c(c(-c4ccc5c(c4)OCO5)c4cc(OC)c(OC)cc24)C(=O)OC3)[C@H](OC(=O)OCC=C)[C@H]1OC(=O)N(C)C` (stereo partly drawn) [Compound 30a, 2″,4″-O-diallyl oxycarbonyl-3″-O-dimethylcarbamyl-7-O-β-D-xylosyldiphyllin]: the CC50 in series [2] (CC50 (nM)) was determined as 145 nM; in series [2] (setting [7]) it was 35.2 nM. Also, in series [3] (H5N1, A549, 12.5 ng/mL, read-out: % Inhibition against H5N1 virus), the inhibition at 0.0125 µg/mL came to 44.1%. Also, the inhibition at 0.05 µg/mL in series [3] (setting [8]) stood at 95.7%. In addition, the inhibition at 0.25 µg/mL in series [3] (setting [8]) is 97.6%. Moreover, the EC50 in series [3] came out at 3.88 nM; in series [4], 8.6 nM; in series [5], 1.84 nM.
In turn, `COc1cc2c(NC(C)=O)c3c(c(-c4ccc5c(c4)OCO5)c2cc1OC)C(=O)OC3` [Compound 24] came in with an EC50 in series [1] of 88.9 nM. The same molecule registered a CC50 in series [2] (CC50 (nM)) greater than 11900 nM.

The values above are taken from patent US11638713B2, “Patentiflorin A analogs as antiviral agents” (priority 2019, dated 2023).
